The values below come from patent publication US12485157B2, “Method of treating COVID-19” (Pfizer Inc., priority 2020, dated 2025).

For the assay, the target named is SARS-CoV-2 3CL protease (Severe acute respiratory syndrome coronavirus 2 (2019-nCoV) (SARS-CoV-2), UniProt P0DTD1). As to the kind of experiment: SARS-CoV-2 Coronavirus 3C Protease FRET Assay. The format is biochemical. As to conditions: for Ki: read-out: 3CL Protease Geometric Mean Ki.

With `COc1cccc2[nH]c(C(=O)N[C@@H](CC(C)C)C(=O)N[C@@H](C[C@@H]3CCNC3=O)C(=O)COC(=O)c3c(F)cccc3F)cc12` [Example 11, (3S)-3-({N-[(4-methoxy-1H-Indol-2-yl)carbonyl]-L-leucyl}amino)-2-oxo-4-[(3S)-2-oxopyrrolidin-3-yl]butyl 2,6-difluorobenzoate], the inhibitory constant (Ki) turned out to be 1.3 nM.

Take `COc1cccc2[nH]c(C(=O)N[C@@H](CC(C)C)C(=O)N[C@@H](C[C@@H]3CCNC3=O)C(=O)COC(=O)c3ccc(Cl)cc3)cc12` [Example 8, (3S)-3-({N-[(4-methoxy-1H-indol-2-yl)carbonyl]-L-leucyl}amino)-2-oxo-4-[(3S)-2-oxopyrrolidin-3-yl]butyl 4-chlorobenzoate]: the inhibition constant (Ki) was determined as 18.8 nM.

`COc1cccc2[nH]c(C(=O)N[C@@H](CC(C)C)C(=O)N[C@@H](C[C@@H]3CCNC3=O)C(=O)COC(=O)c3c(C)cccc3C)cc12` [Example 10, (3S)-3-({N-[(4-methoxy-1H-indol-2-yl)carbonyl]-L-leucyl}amino)-2-oxo-4-[(3S)-2-oxopyrrolidin-3-yl]butyl 2,6-dimethylbenzoate]: the Ki is 3.4 nM.

As for `COc1cccc2[nH]c(C(=O)N[C@@H](CC(C)C)C(=O)N[C@@H](C[C@@H]3CCNC3=O)C(=O)COC(=O)c3ccc(C)cc3)cc12` [Example 4, (3S)-3-({N-[(4-methoxy-1H-indol-2-yl)carbonyl]-L-leucyl}amino)-2-oxo-4-[(3S)-2-oxopyrrolidin-3-yl]butyl 4-methylbenzoate], the Ki worked out at 17.7 nM.

As for `COc1cccc2[nH]c(C(=O)N[C@@H](CC(C)C)C(=O)N[C@@H](C[C@@H]3CCNC3=O)C(=O)COC(=O)c3c(Cl)cccc3Cl)cc12` [Example 9, (3S)-3-({N-[(4-methoxy-1H-indol-2-yl)carbonyl]-L-leucyl}amino)-2-oxo-4-[(3S)-2-oxopyrrolidin-3-yl]butyl 2,6-dichlorobenzoate], the Ki is 0.3 nM.

Regarding `COc1cccc2[nH]c(C(=O)N[C@@H](CC(C)C)C(=O)N[C@@H](C[C@@H]3CCNC3=O)C(=O)CO)cc12` [PF-835231, reference compound], the “inhibition of SARS-CoV-2 3CLpro (fluorescent signal reduced)” value (FRET assay control inhibitor) is “potent inhibitor”.

As to `COc1cccc2[nH]c(C(=O)N[C@@H](CC(C)C)C(=O)N[C@@H](C[C@@H]3CCNC3=O)C(=O)COC(=O)c3ccccc3)cc12` [Example 3, (3S)-3-({N-[(4-methoxy-1H-indol-2-yl)carbonyl]-L-leucyl}amino)-2-oxo-4-[(3S)-2-oxopyrrolidin-3-yl]butyl benzoate], the Ki amounted to 233 nM.

With `COc1cccc(OC)c1C(=O)OCC(=O)[C@H](C[C@@H]1CCNC1=O)NC(=O)[C@H](CC(C)C)NC(=O)c1cc2c(OC)cccc2[nH]1` [Example 12, (3S)-3-({N-[(4-methoxy-1H-indol-2-yl)carbonyl]-L-leucyl}amino)-2-oxo-4-[(3S)-2-oxopyrrolidin-3-yl]butyl 2,6-dimethoxybenzoate], the Ki stood at 15.7 nM.

Take `COc1ccc(C(=O)OCC(=O)[C@H](C[C@@H]2CCNC2=O)NC(=O)[C@H](CC(C)C)NC(=O)c2cc3c(OC)cccc3[nH]2)cc1` [Example 7, (3S)-3-({N-[(4-methoxy-1H-indol-2-yl)carbonyl]-L-leucyl}amino)-2-oxo-4-[(3S)-2-oxopyrrolidin-3-yl]butyl 4-methoxybenzoate]: the Ki was determined as 33.4 nM.

`COc1cccc2[nH]c(C(=O)N[C@@H](CC(C)C)C(=O)N[C@@H](C[C@@H]3CCNC3=O)C(=O)COC(=O)c3ccc(C#N)cc3F)cc12` [Example 14, (3S)-3-({N-[(4-methoxy-1H-indol-2-yl)carbonyl]-L-leucyl}amino)-2-oxo-4-[(3S)-2-oxopyrrolidin-3-yl]butyl 4-cyano-2-fluorobenzoate]: the Ki was 0.2 nM.

For `COc1cccc2[nH]c(C(=O)N[C@@H](CC(C)C)C(=O)N[C@@H](C[C@@H]3CCNC3=O)C(=O)COC(=O)c3ccccc3C#N)cc12` [Example 15, (3S)-3-({N-[(4-methoxy-1H-indol-2-yl)carbonyl]-L-leucyl}amino)-2-oxo-4-[(3S)-2-oxopyrrolidin-3-yl]butyl 2-cyanobenzoate], the Ki was determined as 0.4 nM.

With `COc1cccc2[nH]c(C(=O)N[C@@H](CC(C)C)C(=O)N[C@@H](C[C@@H]3CCNC3=O)C(=O)COC(=O)c3ccc(F)cc3)cc12` [Example 5, (3S)-3-({N-[(4-methoxy-1H-indol-2-yl)carbonyl]-L-leucyl}amino)-2-oxo-4-[(3S)-2-oxopyrrolidin-3-yl]butyl 4-fluorobenzoate], the Ki amounted to 16.3 nM.

On to `COc1cccc2[nH]c(C(=O)N[C@@H](CC(C)C)C(=O)N[C@@H](C[C@@H]3CCNC3=O)C(=O)COC(=O)c3ccc(C#N)cc3)cc12` [Example 6, (3S)-3-({N-[(4-methoxy-1H-indol-2-yl)carbonyl]-L-leucyl}amino)-2-oxo-4-[(3S)-2-oxopyrrolidin-3-yl]butyl 4-cyanobenzoate], for which the Ki turned out to be 1.9 nM.

Turning to `COc1cccc2[nH]c(C(=O)N[C@@H](CC(C)C)C(=O)N[C@@H](C[C@@H]3CCNC3=O)C(=O)COC(C)=O)cc12` [Example 1, (3S)-3-({N-[(4-methoxy-1H-indol-2-yl)carbonyl]-L-leucyl}amino)-2-oxo-4-[(3S)-2-oxopyrrolidin-3-yl]butyl acetate], the Ki worked out at 19.4 nM.

Regarding `COc1cccc2[nH]c(C(=O)N[C@@H](CC(C)C)C(=O)N[C@@H](C[C@@H]3CCNC3=O)C(=O)COC(=O)C(C)(C)C)cc12` [Example 2, (3S)-3-({N-[(4-methoxy-1H-indol-2-yl)carbonyl]-L-leucyl}amino)-2-oxo-4-[(3S)-2-oxopyrrolidin-3-yl]butyl pivalate], the Ki is 94.1 nM.
